Assay results from patent publication US20260049092A1, “ANTIBACTERIAL COMPOUNDS” (Blacksmith Medicines, Inc., priority 2022, published 2026).
≈ marks a conversion by molar mass, not a printed value.

Key:
Experiment in all cases: Bacterial susceptibility testing (MIC, broth microdilution)
Type in all cases: cell-based
P. aeruginosa ATCC27853 = conditions: Pseudomonas aeruginosa, ATCC27853, broth microdilution, cation adjusted Mueller-Hinton Broth, 35° C., 18-24 h; read-out: P. aeruginosa ATCC27853 MIC
Method: (§1) Minimal inhibitory concentrations (MIC) were determined by the broth microdilution method in accordance with the Clinical and Laboratory Standards Institute (CLSI) guidelines. In brief, organism suspensions were adjusted to a final inoculum between 3×10^5 and 7×10^5 colony-forming units (CFU)/mL. Drug dilutions and inocula were made in sterile, cation adjusted Mueller-Hinton Broth (Beckton Dickinson). In wells, an inoculum volume of 100 μL was mixed to 2 μL of DMSO with 2-fold serial dilutions of drug. All inoculated microdilution trays were incubated in ambient air at 35° C. for 18-24 h. Following incubation, the lowest concentration of the drug that prevented visible growth (OD600 nm<0.05) was recorded as the MIC. Performance of the assay was monitored by the use of laboratory quality -control strains and compounds with defined MIC spectrum, in accordance with CLSI guidelines.

P. aeruginosa PAO1 = conditions: Pseudomonas aeruginosa, PAO1; broth microdilution, cation adjusted Mueller-Hinton Broth, 35° C., 18-24 h; read-out: P. aeruginosa PAO1 MIC
Method: as §1

K. pneumoniae ATCC13883 = conditions: Klebsiella pneumoniae, ATCC13883, broth microdilution, cation adjusted Mueller-Hinton Broth, 35° C., 18-24 h; read-out: K. pneumoniae ATCC13883 MIC
Method: as §1

E. coli ATCC25922 = conditions: Escherichia coli, ATCC25922, broth microdilution, cation adjusted Mueller-Hinton Broth, 35° C., 18-24 h; read-out: E. coli ATCC25922 MIC
Method: as §1

Row | MIC (P. aeruginosa ATCC27853) [µg/mL] | MIC (P. aeruginosa PAO1) [µg/mL] | MIC (K. pneumoniae ATCC13883) [µg/mL] | MIC (E. coli ATCC25922) [µg/mL] | SMILES
1 | 8 (≈ 17 µM) | 4 (≈ 8.5 µM) | 2 (≈ 4.25 µM) | 1 (≈ 2.13 µM) | C[C@H](O)c1nccn1[C@@H](C#Cc1ccc(-c2ccc(O[C@@H]3COC[C@H]3O)c(F)c2)c(F)c1)CO (single isomer, unassigned) [Compound 10]
2 | 8 (≈ 17 µM) | 4 (≈ 8.5 µM) | 4 (≈ 8.5 µM) | 1 (≈ 2.13 µM) | C[C@H](O)c1nccn1[C@@H](C#Cc1ccc(-c2ccc(O[C@H]3COC[C@@H]3O)c(F)c2)c(F)c1)CO (single isomer, unassigned) [Compound 11]
3 | 16 (≈ 34 µM) | 4 (≈ 8.5 µM) | 4 (≈ 8.5 µM) | 2 (≈ 4.25 µM) | C[C@H](O)c1nccn1[C@@H](C#Cc1ccc(-c2ccc(O[C@@H]3COC[C@H]3O)c(F)c2F)cc1)CO (single isomer, unassigned) [Compound 13]
4 | 8 (≈ 17 µM) | 4 (≈ 8.5 µM) | 4 (≈ 8.5 µM) | 2 (≈ 4.25 µM) | C[C@H](O)c1nccn1[C@@H](C#Cc1ccc(-c2ccc(O[C@H]3COC[C@@H]3O)c(F)c2F)cc1)CO (single isomer, unassigned) [Compound 14]
5 | 4 (≈ 8.57 µM) | 2 (≈ 4.29 µM) | 2 (≈ 4.29 µM) | 1 (≈ 2.14 µM) | C[C@H](O)c1nccn1[C@@H](C#Cc1ccc(-c2ccc(CO[C@H]3COC[C@@H]3O)c(F)c2)cc1)CO (single isomer, unassigned) [Compound 45]
6 | 4 (≈ 8.53 µM) | 4 (≈ 8.53 µM) | 4 (≈ 8.53 µM) | 1 (≈ 2.13 µM) | C[C@H](O)c1nccn1[C@@H](C#Cc1ccc(-c2ccc(O[C@@H]3COC[C@H]3O)cc2Cl)cc1)CO (single isomer, unassigned) [Compound 47]
7 | 4 (≈ 8.53 µM) | 2 (≈ 4.26 µM) | 4 (≈ 8.53 µM) | 1 (≈ 2.13 µM) | C[C@H](O)c1nccn1[C@@H](C#Cc1ccc(-c2ccc(O[C@H]3COC[C@@H]3O)cc2Cl)cc1)CO (single isomer, unassigned) [Compound 48]
8 | 4 (≈ 8.57 µM) | 2 (≈ 4.29 µM) | 1 (≈ 2.14 µM) | 0.5 (≈ 1.07 µM) | C[C@H](O)c1nccn1[C@@H](C#Cc1ccc(-c2ccc(CO[C@@H]3COC[C@H]3O)cc2F)cc1)CO (single isomer, unassigned) [Compound 49]
9 | 4 (≈ 8.57 µM) | 2 (≈ 4.29 µM) | 2 (≈ 4.29 µM) | 0.5 (≈ 1.07 µM) | C[C@H](O)c1nccn1[C@@H](C#Cc1ccc(-c2ccc(CO[C@H]3COC[C@@H]3O)cc2F)cc1)CO (single isomer, unassigned) [Compound 50]
10 | 8 (≈ 17.1 µM) | 2 (≈ 4.29 µM) | 2 (≈ 4.29 µM) | 1 (≈ 2.14 µM) | C[C@H](O)c1nccn1[C@@H](C#Cc1ccc(-c2ccc(O[C@@H]3CCOC[C@H]3O)c(F)c2)cc1)CO (single isomer, unassigned) [Compound 52]
11 | 8 (≈ 17.1 µM) | 4 (≈ 8.57 µM) | 4 (≈ 8.57 µM) | 1 (≈ 2.14 µM) | C[C@H](O)c1nccn1[C@@H](C#Cc1ccc(-c2ccc(O[C@H]3CCOC[C@@H]3O)c(F)c2)cc1)CO (single isomer, unassigned) [Compound 53]
12 | 8 (≈ 17.1 µM) | 4 (≈ 8.57 µM) | 4 (≈ 8.57 µM) | 1 (≈ 2.14 µM) | C[C@H](O)c1nccn1[C@@H](C#Cc1ccc(-c2ccc(O[C@@H]3CCOC[C@H]3O)cc2F)cc1)CO (single isomer, unassigned) [Compound 55]
13 | 8 (≈ 17.1 µM) | 2 (≈ 4.29 µM) | 2 (≈ 4.29 µM) | 1 (≈ 2.14 µM) | C[C@H](O)c1nccn1[C@@H](C#Cc1ccc(-c2ccc(O[C@H]3CCOC[C@@H]3O)cc2F)cc1)CO (single isomer, unassigned) [Compound 56]
14 | 2 (≈ 4.43 µM) | 2 (≈ 4.43 µM) | 4 (≈ 8.86 µM) | 1 (≈ 2.21 µM) | C[C@H](O)c1nccn1[C@@H](C#Cc1ccc(-c2ccc(NC3COC[C@@H]3O)cc2F)cc1)CO (single isomer, unassigned) [Compound 57]
15 | 4 (≈ 8.86 µM) | 4 (≈ 8.86 µM) | 4 (≈ 8.86 µM) | 1 (≈ 2.21 µM) | C[C@H](O)c1nccn1[C@@H](C#Cc1ccc(-c2ccc(NC3COC[C@H]3O)cc2F)cc1)CO (single isomer, unassigned) [Compound 58]
16 | 4 (≈ 8.86 µM) | 2 (≈ 4.43 µM) | 4 (≈ 8.86 µM) | 1 (≈ 2.21 µM) | C[C@H](O)c1nccn1[C@@H](C#Cc1ccc(-c2ccc(N[C@@H]3COC[C@H]3O)c(F)c2)cc1)CO (single isomer, unassigned) [Compound 59]
17 | 4 (≈ 8.86 µM) | 4 (≈ 8.86 µM) | 4 (≈ 8.86 µM) | 2 (≈ 4.43 µM) | C[C@H](O)c1nccn1[C@@H](C#Cc1ccc(-c2ccc(N[C@H]3COC[C@@H]3O)c(F)c2)cc1)CO (single isomer, unassigned) [Compound 60]

Row | MIC (P. aeruginosa ATCC27853) [µg/mL] | MIC (P. aeruginosa PAO1) [µg/mL] | MIC (K. pneumoniae ATCC13883) [µg/mL] | MIC (E. coli ATCC25922) [µg/mL] | SMILES
18 | > 32 | 16 (≈ 34.1 µM) | 8 (≈ 17.1 µM) | 4 (≈ 8.53 µM) | C[C@H](O)c1nccn1[C@@H](C#Cc1ccc(-c2ccc(O[C@@H]3COC[C@H]3O)c(Cl)c2)cc1)CO (single isomer, unassigned) [Compound 62]
19 | 4 (≈ 8.69 µM) | 2 (≈ 4.34 µM) | 2 (≈ 4.34 µM) | 0.5 (≈ 1.09 µM) | C[C@H](O)c1nccn1[C@@H](C#Cc1ccc(-c2ccc(OC3CN(CC#N)C3)cc2F)cc1)CO (single isomer, unassigned) [Compound 63]
20 | 8 (≈ 17.4 µM) | 8 (≈ 17.4 µM) | 2 (≈ 4.34 µM) | 1 (≈ 2.17 µM) | C[C@H](O)c1nccn1[C@@H](C#Cc1ccc(-c2ccc(OC3CN(CC#N)C3)c(F)c2)cc1)CO (single isomer, unassigned) [Compound 64]
21 | 4 (≈ 9.06 µM) | 2 (≈ 4.53 µM) | 4 (≈ 9.06 µM) | 1 (≈ 2.26 µM) | C[C@H](O)c1nccn1[C@@H](C#Cc1ccc(-c2ccc(NC3CN(CC#N)C3)cc2)cc1)CO (single isomer, unassigned) [Compound 66]
22 | 4 (≈ 8.29 µM) | 2 (≈ 4.14 µM) | 4 (≈ 8.29 µM) | 0.5 (≈ 1.04 µM) | C[C@H](O)c1nccn1[C@@H](C#Cc1ccc(-c2ccc(OC3CC4(C3)CN(CC#N)C4)cc2)cc1)CO (single isomer, unassigned) [Compound 67]
23 | 1 (≈ 2.31 µM) | 1 (≈ 2.31 µM) | 4 (≈ 9.23 µM) | 2 (≈ 4.61 µM) | C[C@H](O)c1nccn1[C@@H](C#Cc1ccc(-c2ccc(N[C@@H]3COC[C@H]3O)cc2)cc1)CO (single isomer, unassigned) [Compound 70]
24 | 2 (≈ 4.29 µM) | 2 (≈ 4.29 µM) | 4 (≈ 8.57 µM) | 4 (≈ 8.57 µM) | C[C@H](O)c1nccn1[C@@H](C#Cc1ccc(-c2ccc(O[C@@H]3C[S+]([O-])C[C@H]3O)cc2)cc1)CO (single isomer, unassigned) [Compound 74]
25 | 4 (≈ 9.31 µM) | 2 (≈ 4.66 µM) | 1 (≈ 2.33 µM) | 0.25 (≈ 0.582 µM) | C[C@H](O)c1nccn1[C@@H](C#Cc1ccc(-c2ccc(N3CC4(COC4)C3)cc2)cc1)CO (single isomer, unassigned) [Compound 75]
26 | 4 (≈ 9 µM) | 4 (≈ 9 µM) | 16 (≈ 36 µM) | 2 (≈ 4.5 µM) | CC(=O)N1CC(Nc2ccc(-c3ccc(C#C[C@@H](CO)n4ccnc4[C@H](C)O)cc3)cc2)C1 (single isomer, unassigned) [Compound 76]
27 | 4 (≈ 9.27 µM) | 4 (≈ 9.27 µM) | 2 (≈ 4.63 µM) | 0.5 (≈ 1.16 µM) | C[C@H](O)c1nccn1[C@@H](C#Cc1ccc(-c2ccc(N[C@H]3CCC[C@@H]3O)cc2)cc1)CO (single isomer, unassigned) [Compound 77]
28 | 2 (≈ 4.21 µM) | 2 (≈ 4.21 µM) | 2 (≈ 4.21 µM) | 1 (≈ 2.11 µM) | CNC(=O)CN1CC(Oc2ccc(-c3ccc(C#C[C@@H](CO)n4ccnc4[C@H](C)O)cc3)cc2)C1 (single isomer, unassigned) [Compound 100]
29 | 2 (≈ 4.25 µM) | 2 (≈ 4.25 µM) | 2 (≈ 4.25 µM) | 1 (≈ 2.13 µM) | C[C@H](O)c1nccn1[C@@H](C#Cc1ccc(-c2ccc(OC3CCN(CC#N)CC3)cc2)cc1)CO (single isomer, unassigned) [Compound 103]
30 | 4 (≈ 9.08 µM) | 4 (≈ 9.08 µM) | 1 (≈ 2.27 µM) | 1 (≈ 2.27 µM) | C[C@H](O)c1nccn1[C@@H](C#Cc1ccc(-c2ccc(CC3CN(CC#N)C3)cc2)cc1)CO (single isomer, unassigned) [Compound 105]
31 | 4 (≈ 9.89 µM) | 2 (≈ 4.94 µM) | 0.5 (≈ 1.24 µM) | 0.25 (≈ 0.618 µM) | C[C@H](O)c1nccn1[C@@H](C#Cc1ccc(-c2ccc(OC3COC3)cc2)cc1)CO (single isomer, unassigned) [Compound 107]
32 | > 32 | 2 (≈ 4.98 µM) | 1.5 (≈ 3.74 µM) | 0.62 (≈ 1.54 µM) | C[C@H](O)c1nccn1[C@@H](C#Cc1ccc(-c2ccc(N3CCC3=O)cc2)cc1)CO (single isomer, unassigned) [Compound 109]
33 | > 32 | 32 (≈ 71.3 µM) | 8 (≈ 17.8 µM) | 4 (≈ 8.92 µM) | Cc1cc(-c2ccc(C#C[C@@H](CO)n3ccnc3[C@H](C)O)cc2)ccc1O[C@@H]1COC[C@H]1O (single isomer, unassigned) [Compound 113]
34 | > 32 | 16 (≈ 35.7 µM) | 8 (≈ 17.8 µM) | 4 (≈ 8.92 µM) | Cc1cc(-c2ccc(C#C[C@@H](CO)n3ccnc3[C@H](C)O)cc2)ccc1O[C@H]1COC[C@@H]1O (single isomer, unassigned) [Compound 114]
